Measured values published in publication PMC7156458, “Synthetic biology based construction of biological activity-related library of fungal decalin-containing diterpenoid pyrones” (Nature Communications, 2020).

Target: Aβ42 (Homo sapiens, UniProt P05067)
Experiment: Th-T (thioflavin-T) assay of Aβ42 aggregation
Type: biochemical
Details: for Th-T assay plate reading, mean of three wells (Supplementary Fig. 47): source data, Ab alone and No Ab as controls

Sequence of Aβ42 (P05067 672-713): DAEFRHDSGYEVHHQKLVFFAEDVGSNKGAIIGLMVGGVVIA

Th-T fluorescence, mean of three wells (Aβ42 aggregation time course, reading M118): 2.194
Th-T fluorescence, mean of three wells (Aβ42 aggregation time course, reading M119): 2.214
Th-T fluorescence, mean of three wells (Aβ42 aggregation time course, reading M120): 2.225
Th-T fluorescence, mean of three wells (Aβ42 aggregation time course, reading M121): 2.184
Th-T fluorescence, mean of three wells (Aβ42 aggregation time course, reading M122): 2.1853
Th-T fluorescence, mean of three wells (Aβ42 aggregation time course, reading M123): 2.186
Th-T fluorescence, mean of three wells (Aβ42 aggregation time course, reading M124): 2.207
Th-T fluorescence, mean of three wells (Aβ42 aggregation time course, reading M125): 2.241
Th-T fluorescence, mean of three wells (Aβ42 aggregation time course, reading M126): 2.218
Th-T fluorescence, mean of three wells (Aβ42 aggregation time course, reading M127): 2.187
Th-T fluorescence, mean of three wells (Aβ42 aggregation time course, reading M128): 2.217
Th-T fluorescence, mean of three wells (Aβ42 aggregation time course, reading M129): 2.196
Th-T fluorescence, mean of three wells (Aβ42 aggregation time course, reading M130): 2.222
Th-T fluorescence, mean of three wells (Aβ42 aggregation time course, reading M131): 2.189
Th-T fluorescence, mean of three wells (Aβ42 aggregation time course, reading M132): 2.211
Th-T fluorescence, mean of three wells (Aβ42 aggregation time course, reading M133): 2.1957
Th-T fluorescence, mean of three wells (Aβ42 aggregation time course, reading M134): 2.2077
Th-T fluorescence, mean of three wells (Aβ42 aggregation time course, reading M135): 2.191
Th-T fluorescence, mean of three wells (Aβ42 aggregation time course, reading M136): 2.198
Th-T fluorescence, mean of three wells (Supplementary Fig. 47, reading M138): 2.179
Th-T fluorescence, mean of three wells (Supplementary Fig. 47, reading M139): 2.196
Th-T fluorescence, mean of three wells (Supplementary Fig. 47, reading M140): 2.2093
Th-T fluorescence, mean of three wells (Supplementary Fig. 47, reading M141): 2.191
Th-T fluorescence, mean of three wells (Supplementary Fig. 47, reading M142): 2.182
Th-T fluorescence, mean of three wells (Supplementary Fig. 47, reading M143): 2.202
Th-T fluorescence, mean of three wells (Supplementary Fig. 47, reading M144): 2.22
Th-T fluorescence, mean of three wells (Supplementary Fig. 47, reading M145): 2.173
Th-T fluorescence, mean of three wells (Supplementary Fig. 47 source data, measurement M38 of time course): 2.163
Th-T fluorescence, mean of three wells (Supplementary Fig. 47 source data, measurement M39 of time course): 2.1439
Th-T fluorescence, mean of three wells (Supplementary Fig. 47 source data, measurement M40 of time course): 2.183
Th-T fluorescence, mean of three wells (Supplementary Fig. 47 source data, measurement M41 of time course): 2.185
Th-T fluorescence, mean of three wells (Supplementary Fig. 47 source data, measurement M42 of time course): 2.198
Th-T fluorescence, mean of three wells (Supplementary Fig. 47 source data, measurement M43 of time course): 2.197
Th-T fluorescence, mean of three wells (Supplementary Fig. 47 source data, measurement M44 of time course): 2.1886
Th-T fluorescence, mean of three wells (Supplementary Fig. 47 source data, measurement M45 of time course): 2.191
Th-T fluorescence, mean of three wells (Supplementary Fig. 47 source data, measurement M46 of time course): 2.181
Th-T fluorescence, mean of three wells (Supplementary Fig. 47 source data, measurement M47 of time course): 2.191
Th-T fluorescence, mean of three wells (Supplementary Fig. 47 source data, measurement M48 of time course): 2.202
Th-T fluorescence, mean of three wells (Supplementary Fig. 47 source data, measurement M49 of time course): 2.2088
Th-T fluorescence, mean of three wells (Supplementary Fig. 47 source data, measurement M50 of time course): 2.229
Th-T fluorescence, mean of three wells (Supplementary Fig. 47 source data, measurement M51 of time course): 2.215
Th-T fluorescence, mean of three wells (Supplementary Fig. 47 source data, measurement M52 of time course): 2.214
Th-T fluorescence, mean of three wells (Supplementary Fig. 47 source data, measurement M53 of time course): 2.236
Th-T fluorescence, mean of three wells (Supplementary Fig. 47 source data, measurement M54 of time course): 2.223
Th-T fluorescence, mean of three wells (Supplementary Fig. 47 source data, measurement M55 of time course): 2.205
Th-T fluorescence, mean of three wells (Supplementary Fig. 47 source data, measurement M56 of time course): 2.204
Th-T assay plate reading, mean of three wells (Supplementary Fig. 47) (measurement M2): 0.2095
Th-T assay plate reading, mean of three wells (Supplementary Fig. 47) (measurement M3): 0.2324
Th-T assay plate reading, mean of three wells (Supplementary Fig. 47) (measurement M4): 0.2683
Th-T assay plate reading, mean of three wells (Supplementary Fig. 47) (measurement M5): 0.2913
Th-T assay plate reading, mean of three wells (Supplementary Fig. 47) (measurement M6): 0.3294
Th-T assay plate reading, mean of three wells (Supplementary Fig. 47) (measurement M7): 0.3614
Th-T assay plate reading, mean of three wells (Supplementary Fig. 47) (measurement M8): 0.4027
Th-T assay plate reading, mean of three wells (Supplementary Fig. 47) (measurement M9): 0.444
Th-T assay plate reading, mean of three wells (Supplementary Fig. 47) (measurement M10): 0.4702
Th-T assay plate reading, mean of three wells (Supplementary Fig. 47) (measurement M11): 0.5005
Th-T assay plate reading, mean of three wells (Supplementary Fig. 47) (measurement M12): 0.5205
Th-T assay plate reading, mean of three wells (Supplementary Fig. 47) (measurement M13): 0.553
Th-T assay plate reading, mean of three wells (Supplementary Fig. 47) (measurement M14): 0.605
Th-T assay plate reading, mean of three wells (Supplementary Fig. 47) (measurement M15): 0.733
Th-T assay plate reading, mean of three wells (Supplementary Fig. 47) (measurement M16): 0.9658
Th-T fluorescence, mean of three wells (reading M18, Supplementary Fig. 47 source data): 1.528
Th-T fluorescence, mean of three wells (reading M19, Supplementary Fig. 47 source data): 1.697
Th-T fluorescence, mean of three wells (reading M20, Supplementary Fig. 47 source data): 1.804
Th-T fluorescence, mean of three wells (reading M21, Supplementary Fig. 47 source data): 1.844
Th-T fluorescence, mean of three wells (reading M22, Supplementary Fig. 47 source data): 1.86
Th-T fluorescence, mean of three wells (reading M23, Supplementary Fig. 47 source data): 1.891
Th-T fluorescence, mean of three wells (reading M24, Supplementary Fig. 47 source data): 1.925
Th-T fluorescence, mean of three wells (reading M25, Supplementary Fig. 47 source data): 1.959
Th-T fluorescence, mean of three wells (reading M26, Supplementary Fig. 47 source data): 2.003
Th-T fluorescence, mean of three wells (reading M27, Supplementary Fig. 47 source data): 2.003
Th-T fluorescence, mean of three wells (reading M28, Supplementary Fig. 47 source data): 2.0134
Th-T fluorescence, mean of three wells (reading M29, Supplementary Fig. 47 source data): 2.048
Th-T fluorescence, mean of three wells (reading M30, Supplementary Fig. 47 source data): 2.063
Th-T fluorescence, mean of three wells (reading M31, Supplementary Fig. 47 source data): 2.093
Th-T fluorescence, mean of three wells (reading M32, Supplementary Fig. 47 source data): 2.109
Th-T fluorescence, mean of three wells (reading M33, Supplementary Fig. 47 source data): 2.135
Th-T fluorescence, mean of three wells (reading M34, Supplementary Fig. 47 source data): 2.108
Th-T fluorescence, mean of three wells (reading M35, Supplementary Fig. 47 source data): 2.139
Th-T fluorescence, mean of three wells (reading M36, Supplementary Fig. 47 source data): 2.159
Th-T fluorescence, mean of three wells (time course, reading M58): 2.216
Th-T fluorescence, mean of three wells (time course, reading M59): 2.2236
Th-T fluorescence, mean of three wells (time course, reading M60): 2.219
Th-T fluorescence, mean of three wells (time course, reading M61): 2.226
Th-T fluorescence, mean of three wells (time course, reading M62): 2.227
Th-T fluorescence, mean of three wells (time course, reading M63): 2.25
Th-T fluorescence, mean of three wells (time course, reading M64): 2.223
Th-T fluorescence, mean of three wells (time course, reading M65): 2.24
Th-T fluorescence, mean of three wells (time course, reading M66): 2.247
Th-T fluorescence, mean of three wells (time course, reading M67): 2.214
Th-T fluorescence, mean of three wells (time course, reading M68): 2.201
Th-T fluorescence, mean of three wells (time course, reading M69): 2.2304
Th-T fluorescence, mean of three wells (time course, reading M70): 2.212
Th-T fluorescence, mean of three wells (time course, reading M71): 2.214
Th-T fluorescence, mean of three wells (time course, reading M72): 2.213
Th-T fluorescence, mean of three wells (time course, reading M73): 2.224
Th-T fluorescence, mean of three wells (time-course reading M98, Supplementary Fig. 47 source data): 2.211
Th-T fluorescence, mean of three wells (time-course reading M99, Supplementary Fig. 47 source data): 2.236
Th-T fluorescence, mean of three wells (time-course reading M100, Supplementary Fig. 47 source data): 2.235
Th-T fluorescence, mean of three wells (time-course reading M101, Supplementary Fig. 47 source data): 2.216
Th-T fluorescence, mean of three wells (time-course reading M102, Supplementary Fig. 47 source data): 2.236
Th-T fluorescence, mean of three wells (time-course reading M103, Supplementary Fig. 47 source data): 2.209
Th-T fluorescence, mean of three wells (time-course reading M104, Supplementary Fig. 47 source data): 2.206
Th-T fluorescence, mean of three wells (time-course reading M105, Supplementary Fig. 47 source data): 2.201
Th-T fluorescence, mean of three wells (time-course reading M106, Supplementary Fig. 47 source data): 2.237
Th-T fluorescence, mean of three wells (time-course reading M107, Supplementary Fig. 47 source data): 2.2129
Th-T fluorescence, mean of three wells (time-course reading M108, Supplementary Fig. 47 source data): 2.1995
Th-T fluorescence, mean of three wells (time-course reading M109, Supplementary Fig. 47 source data): 2.203
Th-T fluorescence, mean of three wells (time-course reading M110, Supplementary Fig. 47 source data): 2.217
Th-T fluorescence, mean of three wells (time-course reading M111, Supplementary Fig. 47 source data): 2.201
Th-T fluorescence, mean of three wells (time-course reading M112, Supplementary Fig. 47 source data): 2.214
Th-T fluorescence, mean of three wells (time-course reading M113, Supplementary Fig. 47 source data): 2.2232
Th-T fluorescence, mean of three wells (time-course reading M114, Supplementary Fig. 47 source data): 2.196
Th-T fluorescence, mean of three wells (time-course reading M115, Supplementary Fig. 47 source data): 2.1937
Th-T fluorescence, mean of three wells (time-course reading M116, Supplementary Fig. 47 source data): 2.237
Structure (SMILES): C=C1CCC2C(C)(CCC=C(C)C)C(=O)CCC2(C)C1Cc1c(O)c(C)c(C)oc1=O (stereo not shown) [Compound 8]
